Measurements taken from BindingDB's records for doi:10.1021/jm950409c (University of Bari Aldo Moro, 1996).

Assays:
[1] = Inhibition of [3H]DTG binding to sigma receptor from guinea pig brain cortex membrane
[2] = Inhibitory activity against 5-hydroxytryptamine 1A receptor isolated from rat hippocampus membranes membrane using [3H]5-HT as radioligand in the presence of 10e-6 M ketanserin as 5-HT2 blocker
[3] = target: Sigma non-opioid intracellular receptor 1 (Cavia porcellus) (UniProt Q60492); experiment: Inhibitory activity against sigma receptor isolated from guinea pig brain cortex membrane using [3H]DTG as radioligand
Chain of Sigma non-opioid intracellular receptor 1 (Cavia porcellus) (Q60492 whole entry, looked up): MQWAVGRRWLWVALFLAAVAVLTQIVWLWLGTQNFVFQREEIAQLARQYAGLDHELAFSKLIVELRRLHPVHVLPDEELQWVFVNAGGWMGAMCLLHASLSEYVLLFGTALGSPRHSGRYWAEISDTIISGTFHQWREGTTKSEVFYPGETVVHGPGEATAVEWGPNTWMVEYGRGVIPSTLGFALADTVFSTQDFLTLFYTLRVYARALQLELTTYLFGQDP

[4] = Inhibitory activity against sigma receptor isolated from guinea pig brain cortex membrane using PCP as radioligand at a concentration of 10e-5 M

SMILES	Ki [1] [µM]	Ki [2] [µM]	Ki [3] [µM]	Ki [4] [µM]
COc1cccc2c1CCCC2CCCN1CCNCC1 (stereo unspecified) [1-(3-(5-methoxy-1,2,3,4-tetrahydronaphthalen-1-yl)propyl)piperazine]	> 0.877	–	–	–
COc1ccc2c(c1)C(CCCN1CCN(C3=NCCCC3)CC1)CCC2 (stereo unspecified) [1-[3-(7-Methoxy-1,2,3,4-tetrahydro-naphthalen-1-yl)-propyl]-4-(3,4,5,6-tetrahydro-pyridin-2-yl)-piperazine]	0.029	–	–	–
COc1cccc2c1CCC=C2CCCN1CCN(Cc2ccccc2)CC1 [1-Benzyl-4-[3-(5-methoxy-3,4-dihydro-naphthalen-1-yl)-propyl]-piperazine]	–	> 1.43	0.139	–
COc1cccc2c1CCCC2CCCNCCNc1ccccc1 (stereo unspecified) [N-[3-(5-Methoxy-1,2,3,4-tetrahydro-naphthalen-1-yl)-propyl]-N'-phenyl-ethane-1,2-diamine]	0.265	–	–	2.13
